This is an account of results in patent publication US20240246942A1, “KINASE INHIBITORS FOR THE TREATMENT OF NEURODEGENERATIVE DISEASES” (priority 2020, published 2024).

The structures appear in SMILES notation.

What all share (experiment): biochemical
For test [1], the target named is T1, panel of 374 wild-type kinases (Homo sapiens, UniProt Q9H2G2).
T1 construct: purchased Reaction Biology Corporation
Conditions: read-out: % Enzyme Activity (relative to DMSO controls), kinase SLK/STK2.

The target of test [2] is T2, panel of 374 wild-type kinases (Homo sapiens, UniProt Q96RR4).
T2 construct: purchased Reaction Biology Corporation
T2 sequence (Q96RR4 whole entry): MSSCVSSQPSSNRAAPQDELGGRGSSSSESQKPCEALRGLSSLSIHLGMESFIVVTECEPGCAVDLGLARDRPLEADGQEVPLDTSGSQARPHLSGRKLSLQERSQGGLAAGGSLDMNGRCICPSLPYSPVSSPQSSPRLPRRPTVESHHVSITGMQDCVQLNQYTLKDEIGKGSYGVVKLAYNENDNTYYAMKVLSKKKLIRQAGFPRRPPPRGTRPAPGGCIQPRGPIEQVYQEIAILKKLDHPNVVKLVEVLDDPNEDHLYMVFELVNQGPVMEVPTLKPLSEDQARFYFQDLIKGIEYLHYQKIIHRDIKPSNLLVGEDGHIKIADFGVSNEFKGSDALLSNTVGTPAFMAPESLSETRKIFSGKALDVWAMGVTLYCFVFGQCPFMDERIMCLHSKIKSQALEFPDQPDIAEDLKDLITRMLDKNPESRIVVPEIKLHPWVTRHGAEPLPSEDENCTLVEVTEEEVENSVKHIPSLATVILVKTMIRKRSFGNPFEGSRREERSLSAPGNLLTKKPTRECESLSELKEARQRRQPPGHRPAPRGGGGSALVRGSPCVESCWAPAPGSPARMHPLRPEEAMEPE
Conditions: read-out: % Enzyme Activity (relative to DMSO controls), CAMKK2.

The target of test [3] is T3, panel of 374 wild-type kinases (Homo sapiens, UniProt Q6PHR2).
T3 construct: purchased Reaction Biology Corporation
T3 sequence (Q6PHR2 1-472): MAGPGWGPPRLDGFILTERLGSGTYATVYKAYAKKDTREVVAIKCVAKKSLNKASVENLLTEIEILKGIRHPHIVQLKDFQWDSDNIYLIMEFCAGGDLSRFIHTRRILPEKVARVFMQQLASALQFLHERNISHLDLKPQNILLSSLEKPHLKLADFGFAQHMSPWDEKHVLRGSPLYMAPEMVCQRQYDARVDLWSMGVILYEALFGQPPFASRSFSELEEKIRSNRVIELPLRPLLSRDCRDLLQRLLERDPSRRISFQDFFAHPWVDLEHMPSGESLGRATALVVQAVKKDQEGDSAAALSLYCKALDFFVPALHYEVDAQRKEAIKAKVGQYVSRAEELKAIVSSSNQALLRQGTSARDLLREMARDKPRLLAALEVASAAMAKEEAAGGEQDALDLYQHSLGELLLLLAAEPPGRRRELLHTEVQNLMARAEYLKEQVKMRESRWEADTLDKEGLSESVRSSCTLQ
The note with it: read-out: % Enzyme Activity (relative to DMSO controls), kinase ULK3.

In test [4] the target is T4, panel of 374 wild-type kinases (Homo sapiens, UniProt Q76MJ5).
T4 construct: purchased Reaction Biology Corporation
T4 sequence (Q76MJ5 35-926): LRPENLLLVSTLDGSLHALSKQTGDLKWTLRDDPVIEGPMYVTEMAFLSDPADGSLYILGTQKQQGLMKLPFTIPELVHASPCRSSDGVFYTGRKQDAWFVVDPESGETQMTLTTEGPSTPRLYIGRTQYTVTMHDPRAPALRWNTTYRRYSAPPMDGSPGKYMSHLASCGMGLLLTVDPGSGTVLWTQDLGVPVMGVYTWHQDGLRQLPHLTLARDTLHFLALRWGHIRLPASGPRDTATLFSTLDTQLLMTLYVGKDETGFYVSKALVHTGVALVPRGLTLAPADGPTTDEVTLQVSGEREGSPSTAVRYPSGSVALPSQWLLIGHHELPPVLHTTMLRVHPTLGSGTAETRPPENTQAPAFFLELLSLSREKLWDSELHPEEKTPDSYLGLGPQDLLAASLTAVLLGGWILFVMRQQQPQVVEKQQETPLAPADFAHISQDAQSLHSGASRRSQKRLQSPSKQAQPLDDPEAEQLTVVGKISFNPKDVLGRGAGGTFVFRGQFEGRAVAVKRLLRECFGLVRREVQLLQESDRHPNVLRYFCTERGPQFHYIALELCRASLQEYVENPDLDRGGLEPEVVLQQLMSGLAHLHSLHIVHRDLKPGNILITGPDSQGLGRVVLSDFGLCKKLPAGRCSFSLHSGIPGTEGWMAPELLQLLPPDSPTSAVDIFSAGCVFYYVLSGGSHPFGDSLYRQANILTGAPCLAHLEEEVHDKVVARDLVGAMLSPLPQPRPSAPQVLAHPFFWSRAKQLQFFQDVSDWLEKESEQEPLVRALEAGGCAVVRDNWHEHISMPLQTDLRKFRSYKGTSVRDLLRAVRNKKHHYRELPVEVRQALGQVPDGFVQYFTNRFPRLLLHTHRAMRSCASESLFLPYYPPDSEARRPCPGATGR
Conditions: read-out: % Enzyme Activity (relative to DMSO controls), ERN2/IRE2.

The target of test [5] is T5, panel of 374 wild-type kinases (Homo sapiens, UniProt O00141).
T5 construct: purchased Reaction Biology Corporation
T5 sequence (O00141 1-431): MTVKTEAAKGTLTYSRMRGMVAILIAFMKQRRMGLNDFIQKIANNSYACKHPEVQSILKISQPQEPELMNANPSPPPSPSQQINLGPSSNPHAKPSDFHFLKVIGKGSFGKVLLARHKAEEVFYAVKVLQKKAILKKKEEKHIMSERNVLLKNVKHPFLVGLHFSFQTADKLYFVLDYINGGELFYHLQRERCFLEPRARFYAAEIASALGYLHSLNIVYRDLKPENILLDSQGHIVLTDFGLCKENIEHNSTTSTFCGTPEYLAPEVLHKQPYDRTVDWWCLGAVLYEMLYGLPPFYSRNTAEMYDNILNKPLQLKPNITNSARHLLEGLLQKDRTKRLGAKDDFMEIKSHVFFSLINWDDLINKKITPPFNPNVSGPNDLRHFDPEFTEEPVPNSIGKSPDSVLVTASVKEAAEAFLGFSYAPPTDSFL
The note with it: read-out: % Enzyme Activity (relative to DMSO controls), kinase SGK1.

Test [6] deals with T6, panel of 374 wild-type kinases (Homo sapiens, UniProt Q8IVH8).
T6 construct: purchased Reaction Biology Corporation
T6 sequence (Q8IVH8 1-894): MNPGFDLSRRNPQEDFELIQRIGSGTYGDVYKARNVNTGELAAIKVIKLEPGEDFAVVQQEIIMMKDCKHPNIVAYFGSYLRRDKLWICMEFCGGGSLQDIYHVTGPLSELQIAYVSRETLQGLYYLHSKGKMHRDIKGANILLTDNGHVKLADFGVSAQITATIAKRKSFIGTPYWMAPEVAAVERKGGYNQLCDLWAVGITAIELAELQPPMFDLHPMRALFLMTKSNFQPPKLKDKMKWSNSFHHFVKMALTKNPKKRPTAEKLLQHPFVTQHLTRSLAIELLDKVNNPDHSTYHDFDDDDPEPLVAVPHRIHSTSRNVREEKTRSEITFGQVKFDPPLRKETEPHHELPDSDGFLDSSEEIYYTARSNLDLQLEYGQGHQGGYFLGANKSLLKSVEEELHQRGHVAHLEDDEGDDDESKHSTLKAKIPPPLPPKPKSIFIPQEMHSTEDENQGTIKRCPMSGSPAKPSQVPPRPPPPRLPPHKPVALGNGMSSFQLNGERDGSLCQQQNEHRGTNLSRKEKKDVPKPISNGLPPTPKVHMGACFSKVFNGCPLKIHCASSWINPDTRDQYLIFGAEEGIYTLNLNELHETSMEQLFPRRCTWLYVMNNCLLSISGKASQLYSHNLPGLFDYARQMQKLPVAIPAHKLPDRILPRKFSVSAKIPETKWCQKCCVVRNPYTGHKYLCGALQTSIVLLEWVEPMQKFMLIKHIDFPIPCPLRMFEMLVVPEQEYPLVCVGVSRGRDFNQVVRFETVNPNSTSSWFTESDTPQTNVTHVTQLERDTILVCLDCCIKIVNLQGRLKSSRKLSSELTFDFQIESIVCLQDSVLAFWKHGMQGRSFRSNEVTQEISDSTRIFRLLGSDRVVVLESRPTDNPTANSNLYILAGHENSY
The note with it: read-out: % Enzyme Activity (relative to DMSO controls), GLK/MAP4K3.

T1 sequence (Q9H2G2 whole entry): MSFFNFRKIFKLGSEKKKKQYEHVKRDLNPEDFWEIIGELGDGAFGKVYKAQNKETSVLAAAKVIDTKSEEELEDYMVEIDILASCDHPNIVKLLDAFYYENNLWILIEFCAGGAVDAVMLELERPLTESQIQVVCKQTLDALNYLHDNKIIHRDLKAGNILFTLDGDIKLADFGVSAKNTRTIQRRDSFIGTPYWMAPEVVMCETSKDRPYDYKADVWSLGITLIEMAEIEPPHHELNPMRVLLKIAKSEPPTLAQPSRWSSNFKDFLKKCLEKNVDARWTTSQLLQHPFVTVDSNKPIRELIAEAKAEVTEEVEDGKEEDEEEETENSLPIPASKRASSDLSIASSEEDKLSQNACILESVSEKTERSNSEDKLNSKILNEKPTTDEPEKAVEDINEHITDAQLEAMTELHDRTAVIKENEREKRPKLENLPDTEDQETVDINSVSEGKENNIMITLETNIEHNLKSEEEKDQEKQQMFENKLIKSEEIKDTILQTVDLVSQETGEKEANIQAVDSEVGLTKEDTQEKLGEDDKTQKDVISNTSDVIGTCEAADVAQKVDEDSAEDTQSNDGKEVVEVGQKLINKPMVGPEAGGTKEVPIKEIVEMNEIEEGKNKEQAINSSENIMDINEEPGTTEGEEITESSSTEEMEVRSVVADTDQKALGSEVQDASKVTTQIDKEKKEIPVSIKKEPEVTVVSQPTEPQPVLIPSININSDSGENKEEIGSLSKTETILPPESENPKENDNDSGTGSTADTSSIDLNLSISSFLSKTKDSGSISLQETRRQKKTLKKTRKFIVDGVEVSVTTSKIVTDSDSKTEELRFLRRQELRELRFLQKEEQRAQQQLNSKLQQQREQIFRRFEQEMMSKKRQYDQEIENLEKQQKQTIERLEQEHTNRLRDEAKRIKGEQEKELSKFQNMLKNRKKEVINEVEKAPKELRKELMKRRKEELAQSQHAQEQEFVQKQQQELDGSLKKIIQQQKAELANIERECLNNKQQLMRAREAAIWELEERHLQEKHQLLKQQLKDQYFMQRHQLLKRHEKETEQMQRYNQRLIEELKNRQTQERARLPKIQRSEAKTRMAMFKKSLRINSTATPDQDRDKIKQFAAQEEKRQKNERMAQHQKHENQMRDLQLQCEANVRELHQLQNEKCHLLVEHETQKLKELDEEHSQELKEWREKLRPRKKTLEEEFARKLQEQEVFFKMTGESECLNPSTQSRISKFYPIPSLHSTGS

For the molecule `Cc1sc(C(=O)NC2COC2)cc1-n1cc(NC(=O)Nc2c(F)cccc2Cl)cn1` [Compound 27, 4-(4-(3-(2-chloro-6-fluorophenyl)ureido)-1H-pyrazol-1-yl)-5-methyl-N-(oxetan-3-yl)thiophene-2-carboxamide], the remaining activity at 10 µM in test [1] (10 uM) was determined as 99.7%; in test [2] (10 uM) it was 111%; in test [3] (10 uM), 105%; in test [4] (10 uM) it was 80.7%; in test [5] (10 uM), 115%; in test [6] (10 uM) it was 118%.

Consider `O=C(Nc1cnn(-c2csc(C(=O)NC3COC3)c2)c1)Nc1c(F)cccc1Cl` [Compound 25, 4-(4-(3-(2-chloro-6-fluorophenyl)ureido)-1H-pyrazol-1-yl)-N-(oxetan-3-yl)thiophene-2-carboxamide], for which the remaining activity at 5 µM in test [1] is 95%; in test [2], 81%; in test [3] it was 76.6%; in test [4], 100%; in test [5], 95.4%; in test [6], 100%.

Consider `O=C(Nc1cnn(-c2csc(C(=O)NC3COC3)c2)c1)Nc1ccccc1Cl` [Compound 17, 4-(4-(3-(2-chlorophenyl)ureido)-1H-pyrazol-1-yl)-N-(oxetan-3-yl)thiophene-2-carboxamide], for which the remaining activity at 5 µM in test [1] was found to be 89.7%; in test [2], 91.1%; in test [3], 111%; in test [4], 100%; in test [5], 93.7%; in test [6], 97.5%.
